In experiment [1] the target is T1, Adrenergic receptor alpha-1 (Homo sapiens, UniProt P35348+P25100+P35368).
T1 sequence (P35348 whole entry): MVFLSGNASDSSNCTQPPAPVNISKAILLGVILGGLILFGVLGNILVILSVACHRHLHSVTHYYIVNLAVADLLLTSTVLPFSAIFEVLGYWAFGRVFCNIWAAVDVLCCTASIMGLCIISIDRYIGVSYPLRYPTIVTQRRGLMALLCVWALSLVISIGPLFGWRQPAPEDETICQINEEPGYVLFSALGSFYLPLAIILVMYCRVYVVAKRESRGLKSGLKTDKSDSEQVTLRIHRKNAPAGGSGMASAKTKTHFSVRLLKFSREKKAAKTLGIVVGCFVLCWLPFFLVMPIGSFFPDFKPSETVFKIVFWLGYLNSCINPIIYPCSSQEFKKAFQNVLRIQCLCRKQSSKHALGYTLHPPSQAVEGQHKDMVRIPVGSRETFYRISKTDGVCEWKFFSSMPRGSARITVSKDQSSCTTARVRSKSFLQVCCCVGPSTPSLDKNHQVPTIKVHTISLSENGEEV
T1 sequence (P25100 whole entry): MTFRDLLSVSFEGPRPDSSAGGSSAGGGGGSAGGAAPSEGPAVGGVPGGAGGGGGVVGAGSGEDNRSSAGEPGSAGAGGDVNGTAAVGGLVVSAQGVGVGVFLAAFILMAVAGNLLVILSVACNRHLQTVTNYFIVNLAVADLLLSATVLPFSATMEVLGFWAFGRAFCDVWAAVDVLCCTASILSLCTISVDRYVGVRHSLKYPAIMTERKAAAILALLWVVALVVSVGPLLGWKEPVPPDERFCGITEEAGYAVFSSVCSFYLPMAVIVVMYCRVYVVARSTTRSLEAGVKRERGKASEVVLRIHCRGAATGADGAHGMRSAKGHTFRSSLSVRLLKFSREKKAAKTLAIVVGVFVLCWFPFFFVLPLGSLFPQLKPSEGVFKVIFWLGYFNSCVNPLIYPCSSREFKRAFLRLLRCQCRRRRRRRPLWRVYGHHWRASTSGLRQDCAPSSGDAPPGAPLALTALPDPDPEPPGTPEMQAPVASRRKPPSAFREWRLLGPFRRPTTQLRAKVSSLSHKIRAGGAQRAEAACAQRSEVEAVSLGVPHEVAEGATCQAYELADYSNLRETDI
T1 sequence (P35368 whole entry): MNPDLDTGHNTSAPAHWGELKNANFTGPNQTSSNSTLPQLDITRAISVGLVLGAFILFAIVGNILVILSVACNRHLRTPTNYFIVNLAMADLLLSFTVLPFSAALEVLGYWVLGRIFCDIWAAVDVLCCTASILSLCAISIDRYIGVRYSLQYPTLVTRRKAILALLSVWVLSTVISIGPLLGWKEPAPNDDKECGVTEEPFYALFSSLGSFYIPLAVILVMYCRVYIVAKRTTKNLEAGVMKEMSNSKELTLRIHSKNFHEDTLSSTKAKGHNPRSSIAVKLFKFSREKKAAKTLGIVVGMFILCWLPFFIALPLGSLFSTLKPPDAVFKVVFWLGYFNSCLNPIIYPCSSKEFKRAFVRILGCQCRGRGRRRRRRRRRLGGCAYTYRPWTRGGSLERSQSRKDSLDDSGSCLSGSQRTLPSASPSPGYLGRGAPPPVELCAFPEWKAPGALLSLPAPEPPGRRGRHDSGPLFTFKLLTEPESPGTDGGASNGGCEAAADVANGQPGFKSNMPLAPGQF
The experiment can be described thus: Binding affinity for human brain Alpha-1 adrenergic receptor.

The target in experiment [2] is T2, Alpha-2B adrenergic receptor (Rattus norvegicus, UniProt P19328).
T2 sequence (P19328 whole entry): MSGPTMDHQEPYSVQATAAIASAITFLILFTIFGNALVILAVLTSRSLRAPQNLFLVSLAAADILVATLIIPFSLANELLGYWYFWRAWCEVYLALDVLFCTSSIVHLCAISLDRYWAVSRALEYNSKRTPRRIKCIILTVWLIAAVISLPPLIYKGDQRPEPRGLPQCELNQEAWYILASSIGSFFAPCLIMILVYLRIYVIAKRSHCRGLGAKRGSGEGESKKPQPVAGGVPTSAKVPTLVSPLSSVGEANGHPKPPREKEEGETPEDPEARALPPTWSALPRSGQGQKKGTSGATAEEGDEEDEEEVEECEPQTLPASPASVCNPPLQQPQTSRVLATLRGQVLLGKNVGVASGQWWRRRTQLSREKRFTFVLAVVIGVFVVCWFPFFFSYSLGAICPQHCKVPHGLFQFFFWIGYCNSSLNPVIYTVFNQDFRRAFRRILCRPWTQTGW
The experiment can be described thus: Binding affinity for rat Alpha-2B adrenergic receptor.

Experiment [3] concerns the target T3, Alpha-2C adrenergic receptor (Homo sapiens, UniProt P18825).
T3 sequence (P18825 whole entry): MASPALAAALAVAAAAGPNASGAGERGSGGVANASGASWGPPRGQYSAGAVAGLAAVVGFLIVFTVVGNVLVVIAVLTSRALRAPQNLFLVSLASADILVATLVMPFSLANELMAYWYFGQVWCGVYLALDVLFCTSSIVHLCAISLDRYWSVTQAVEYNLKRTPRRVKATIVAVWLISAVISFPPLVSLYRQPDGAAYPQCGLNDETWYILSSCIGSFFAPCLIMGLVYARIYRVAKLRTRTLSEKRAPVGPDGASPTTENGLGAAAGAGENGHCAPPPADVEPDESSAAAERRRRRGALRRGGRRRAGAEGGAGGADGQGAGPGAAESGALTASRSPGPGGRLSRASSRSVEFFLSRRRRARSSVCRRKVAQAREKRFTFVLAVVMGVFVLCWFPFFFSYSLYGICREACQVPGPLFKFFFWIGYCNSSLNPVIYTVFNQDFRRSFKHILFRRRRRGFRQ
Put plainly: Binding affinity for human Alpha-2C adrenergic receptor.

Experiment [4] addresses T4, Alpha-2A adrenergic receptor (Homo sapiens, UniProt P08913).
T4 sequence (P08913 whole entry): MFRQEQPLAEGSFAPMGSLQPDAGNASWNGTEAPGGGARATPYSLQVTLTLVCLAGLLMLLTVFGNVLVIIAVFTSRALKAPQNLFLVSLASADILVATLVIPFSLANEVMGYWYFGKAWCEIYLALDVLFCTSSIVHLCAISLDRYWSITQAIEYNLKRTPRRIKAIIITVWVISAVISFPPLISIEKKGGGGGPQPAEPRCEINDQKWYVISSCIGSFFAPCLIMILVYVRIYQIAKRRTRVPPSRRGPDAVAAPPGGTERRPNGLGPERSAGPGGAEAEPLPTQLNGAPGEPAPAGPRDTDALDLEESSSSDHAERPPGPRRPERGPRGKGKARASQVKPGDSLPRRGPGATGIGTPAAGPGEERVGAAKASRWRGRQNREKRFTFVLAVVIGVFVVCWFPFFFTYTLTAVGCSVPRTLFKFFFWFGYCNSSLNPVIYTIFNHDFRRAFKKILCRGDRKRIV
The experiment can be described thus: Binding affinity for human Alpha-2A adrenergic receptor.

Bounds are passed on as bounds.

On to `CC(C)C1C2CCC(C2)C1N` (stereo not given), for which the Ki in experiment [1] was more than 100 µM; in experiment [2] it was more than 20 µM; in experiment [3] it was more than 20 µM; in experiment [4], more than 20 µM.
In experiment [1], `COc1nc(C)nc(Cl)c1NC1=NCCN1` [MOXONIDINE] showed an inhibition constant (Ki) of more than 30 µM.

The values are drawn from ChEMBL document CHEMBL1129518, “Synthesis and pharmacologic evaluation of 2-endo-amino-3-exo-isopropylbicyclo[2.2.1]heptane: a potent imidazoline1 receptor specific agent” (J Med Chem, 1996).
